From US20090124588A1, “Androstane 17-Alpha-Carbonate for Use in the Treatment of Inflammatory and Allergic Conditions” (Glaxo Group Limited, priority 2005, published 2009) come the findings set out here.

Assay type in all cases: cell-based
The target of assay [1] is T1, glucocorticoid receptor (Homo sapiens, UniProt P04150).
T1 sequence (P04150 1-777): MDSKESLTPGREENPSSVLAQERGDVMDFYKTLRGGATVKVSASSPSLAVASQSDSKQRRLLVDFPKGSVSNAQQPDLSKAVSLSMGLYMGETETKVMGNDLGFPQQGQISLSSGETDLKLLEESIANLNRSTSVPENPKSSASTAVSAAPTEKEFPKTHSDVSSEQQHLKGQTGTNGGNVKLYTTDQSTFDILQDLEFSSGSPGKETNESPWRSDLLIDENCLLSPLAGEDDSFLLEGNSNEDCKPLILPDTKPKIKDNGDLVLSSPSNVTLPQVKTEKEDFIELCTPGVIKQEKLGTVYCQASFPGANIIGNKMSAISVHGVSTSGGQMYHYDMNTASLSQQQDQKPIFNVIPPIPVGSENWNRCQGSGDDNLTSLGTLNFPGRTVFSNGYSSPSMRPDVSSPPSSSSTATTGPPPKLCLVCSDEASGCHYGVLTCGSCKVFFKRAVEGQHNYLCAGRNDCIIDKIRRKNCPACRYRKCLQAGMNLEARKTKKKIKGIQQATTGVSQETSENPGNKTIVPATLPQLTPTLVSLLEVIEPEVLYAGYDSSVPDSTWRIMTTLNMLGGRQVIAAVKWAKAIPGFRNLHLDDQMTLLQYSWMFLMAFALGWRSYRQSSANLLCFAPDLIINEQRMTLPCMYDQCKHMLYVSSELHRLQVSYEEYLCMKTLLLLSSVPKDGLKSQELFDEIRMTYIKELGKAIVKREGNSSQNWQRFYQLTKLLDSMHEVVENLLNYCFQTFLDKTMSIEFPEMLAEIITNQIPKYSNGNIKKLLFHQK
As to the kind of experiment: Transactivation activity of glucocorticoid agonists (MMTV-LTR renilla luciferase reporter in A549 cells). The settings on record: 6 hour at 37° C., read-out: maximal response relative to Dexamethasone (100%). The method, then:
The functional assay based on that described by R. J. H. Austin et al., Eur Resp J. (2002), 20, 1386-1392 measures the ability of compounds to directly transactivate gene expression. A549 cells stably transfected with a reporter gene containing the glucocorticoid responsive region of the mouse mammary tumour virus long terminal repeat (MMTV-LTR) coupled to renilla luciferase were treated with test compounds at appropriate doses for 6 hour at 37° C. The amount of luciferase activity present within the cells is then determined by measuring the light emitted following incubation with a suitable substrate. Dose response curves were constructed from which EC50 values were estimated and from which maximal responses are calculated relative to Dexamethasone (100%).

Another assay deals with T2, Progesterone Receptor (Homo sapiens, UniProt P06401).
T2 construct: expressed in transfected cells; host or cells: CV-1 cells transduced with BacMam virus
T2 sequence (P06401 1-933): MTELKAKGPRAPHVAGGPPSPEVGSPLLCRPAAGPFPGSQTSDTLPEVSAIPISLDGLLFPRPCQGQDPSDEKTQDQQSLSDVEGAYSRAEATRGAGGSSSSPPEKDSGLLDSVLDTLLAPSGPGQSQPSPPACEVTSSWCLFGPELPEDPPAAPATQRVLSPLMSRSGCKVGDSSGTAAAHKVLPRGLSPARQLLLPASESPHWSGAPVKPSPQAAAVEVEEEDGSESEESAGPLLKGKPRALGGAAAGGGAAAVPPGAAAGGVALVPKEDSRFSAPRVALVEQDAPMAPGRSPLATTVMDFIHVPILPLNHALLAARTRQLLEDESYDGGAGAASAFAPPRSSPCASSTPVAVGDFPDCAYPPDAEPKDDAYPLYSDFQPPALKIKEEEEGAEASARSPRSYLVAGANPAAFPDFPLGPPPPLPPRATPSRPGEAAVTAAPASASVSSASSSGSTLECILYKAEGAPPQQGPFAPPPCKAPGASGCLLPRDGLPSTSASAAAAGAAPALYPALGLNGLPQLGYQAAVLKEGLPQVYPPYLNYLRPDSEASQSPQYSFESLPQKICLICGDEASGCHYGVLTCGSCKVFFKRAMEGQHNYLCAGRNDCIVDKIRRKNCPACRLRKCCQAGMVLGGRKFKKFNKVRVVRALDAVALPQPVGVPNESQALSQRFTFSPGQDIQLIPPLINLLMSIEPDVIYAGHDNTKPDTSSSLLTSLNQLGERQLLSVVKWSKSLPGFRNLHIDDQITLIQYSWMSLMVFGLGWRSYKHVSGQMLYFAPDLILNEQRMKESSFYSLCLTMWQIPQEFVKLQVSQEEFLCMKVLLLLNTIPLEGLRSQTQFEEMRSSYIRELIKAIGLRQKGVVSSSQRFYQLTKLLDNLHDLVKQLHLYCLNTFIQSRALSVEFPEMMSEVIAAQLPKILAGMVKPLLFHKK
As to the kind of experiment: Progesterone receptor activity (CV-1 cells transduced with PRb-BacMam and MMTV-BacMam). To be noted: 24 h, Steady Glo, read-out: pEC50 progesterone receptor (converted). The method, then:
A T225 flask of CV-1 cells at a density of 80% confluency was washed with PBS, detached from the flask using 0.25% trypsin and counted using a Sysmex KX-21N. Cells were diluted in DMEM containing 10% Hyclone, 2 mM […] and 1% Pen/Strep at 140 cells/μl and transduced with 10% PRb-BacMam and 10% MMTV-BacMam. […] of suspension cells were dispensed to each well of white Nunc 384-well plates, containing compounds at the required concentration. After 24 h 10 μl of Steady Glo were added to each well of the plates. Plates were incubated in the dark for 10 min before reading them on a Viewlux reader. Dose response curves were constructed from which pEC50 values were estimated.

Assay [2] deals with T1, glucocorticoid receptor. As to the kind of experiment: Transrepression activity of glucocorticoid agonists (NF-κB/ELAM-sPAP reporter in A549 cells, TNF stimulated). To be noted: NF-κB responsive ELAM promoter-sPAP reporter, compound 1 hour, TNF 10 ng/ml 16 hours, read-out: pEC50 transrepression (converted). The method, then: The functional assay based on that described by K. P. Ray et al., Biochem J. (1997), 328, 707-715 provides a measure of transrepressive activity of a glucocorticoid agonist. A549 cells stably transfected with a reporter gene containing the NF-κB responsive elements from the ELAM gene promoter coupled to sPAP (secreted alkaline phosphatase) are treated with test compounds at appropriate doses for 1 hour at 37° C. The cells are then stimulated with tumour necrosis factor (TNF, 10 ng/ml) for 16 hours, at which time the amount of alkaline phosphatase produced is measured by a standard colourimetric assay. Dose response curves were constructed from which EC50 values were estimated.

As for `CCC(C)(C)OC(=O)O[C@]1(C(=O)OCC#N)[C@H](C)C[C@H]2[C@@H]3C[C@H](F)C4=CC(=O)C=C[C@]4(C)[C@@]3(F)[C@@H](O)C[C@@]21C` [Example 2, Cyanomethyl (6α,11β,16α,17α)-17-({[(1,1-dimethylpropyl)oxy]carbonyl}oxy)-6,9-difluoro-1-hydroxy-16-methyl-3-oxoandrosta-1,4-diene-17-carboxylate], the Emax at glucocorticoid receptor [1] is below 10%. For the same compound, the EC50 at Progesterone Receptor was above 0.1 µM; on glucocorticoid receptor [2], below 0.0001 µM.

Turning to `C[C@@H]1C[C@H]2[C@@H]3C[C@H](F)C4=CC(=O)C=C[C@]4(C)[C@@]3(F)[C@@H](O)C[C@]2(C)[C@@]1(OC(=O)OC(C)(C)C)C(=O)OCC#N` [Example 1, Cyanomethyl (6α,11β,16α,17α)-17-({[(1,1-dimethylethyl)oxy]carbonyl}oxy)-6,9-difluoro-11-hydroxy-16-methyl-3-oxoandrosta-1,4-diene-17-carboxylate], at glucocorticoid receptor [1], the Emax is below 10%. Also, the EC50 at Progesterone Receptor is above 0.1 µM; at glucocorticoid receptor [2], below 0.0001 µM.
